According to US7557109B2, “Treatment for attention-deficit hyperactivity disorder” (priority 2001, dated 2009):

What was measured:
wild-type mice = experiment: Open-field locomotor activity, wild-type littermates; type: in vivo
Text: Heterozygote coloboma mice were originally purchased from The Jackson Laboratory (Bar Harbor, Me.) and were bred and maintained in our colony. In the current study, 20 mutant mice and 25 wild-type littermates, all aged 8 to 10 weeks, were used. Animals were divided into 4 groups: mutant/drug-treatment (n=11), mutant/vehicle-control (n=9), wild-type/drug-treatment (n=13), wild-type/vehicle-control (n=12). Age and gender were balanced among groups. All animals were housed as littermates (2-4 mice per cage) and were maintained on ad libitum food and water with a 12 hr light/dark cycle.
Open-field testing was performed under normal lighting conditions. Mice were brought into the experimental room and allowed at least 1 hr of acclimatization. Thirty minutes prior to testing, animals received an ip. injection of either d-amphetamine (4 mg/kg), eltoprazine (0.5 mg/kg) or saline. The mice were then placed in the activity monitor arenas (27×27×20 cm, Med Associates). Four animals of matching genotype and treatment were tested at one time. Each testing session lasted 40 minutes, after which animals were returned to their home cages. An automated infrared beam array system measured locomotor activity (total distance traveled) and number of center entries (zone crossings).

[1] = tested on: DA and 5-HT release in dorsal striatum; experiment: In vivo microdialysis of DA and 5-HT release in dorsal striatum, wild-type mice; conditions: 0.1 mg/kg i.p.
Text: Wild-type and 5-HT1B knock out mice were implanted with microdialysis probes according to the methods of DeGroote et al., incorporated herein by reference, with the following modifications. (DeGroote et al., Eur. J. Pharmacol., 439:93-100, 2002). The dialysis probe was placed in the dorsal striatum, at coordinates AP +0.80, ML −1.7 mm from bregma, DV −4.0 mm from the dura, according to the stereotaxic atlas of the mouse brain (Franklin and Paxinos, 1997), and with the toothbar set at 0 mm. Microdialysis experiments were begun 16-20 hours after surgery, using previously described methods, which are incorporated herein by reference (DeGroote et al., 2002). After the start of the dialysis probe perfusion, mice were left undisturbed for three hours. Mice were tested in their home cage during the light period. Samples were collected every 20 minutes in vials containing 7.5 μl acetic acid and stored at −80° C. until HPLC analysis.
Release of DA and 5-HT was measured after peripheral administration of eltoprazine or intrastriatal administration of the selective 5-HT1B receptor agonist CP 93129 dihydrochloride (1,4-Dihydro-3-(1,2,3,6-tetrahydro-4-pyridinyl)-5H-pyrrolo[3,2-b]pyridin-5-one, obtained from Tocris, UK.) Drugs were dissolved in distilled water and further diluted in Ringer solution to the final concentration on the day of the experiment. 5-HT and DA were analyzed by HPLC with electrochemical detection. Samples (25 μl) were injected onto an Inertsil ODS-3 column (3 μM, 2.1×100 mm, Aurora Borealis, The Netherlands) using a Gilson pump and autosampler (Separations, The Netherlands). Separation was performed at 40° C. with the electrochemical detector (Intro, ANTEC Leyden, The Netherlands) set at a potential of 600 mV against an Ag/AgCl reference electrode. The signal was analyzed using Gynkotek software. The mobile phase consisted of 5 g/l (NH4)2SO4, 150 mg/l heptane sulphonic acid sodium salt, 0.5 g/l EDTA, 5% methanol, 30 μl/l triethylamine, 30 μl/l acetic acid, pH 4.6. Flow rate was 0.3 ml/min. The detection limit for 5-HT was 0.5 fmol/25 μl sample (signal to noise ratio 2).
Values for the first four consecutive microdialysis samples were averaged to calculate the basal levels of extracellular 5-HT and DA, uncorrected for probe recovery. Student's t-tests were used to compare basal 5-HT and DA values between the two genotypes. Effects of drug treatment were analyzed by a repeated multivariate analysis of variance (ANOVA) with time as ‘within’ and treatment (or dose) and genotype as ‘between’ factors.

[2] = broad range of doses; cited from earlier work

c1cc2c(c(N3CCNCC3)c1)OCCO2 [eltoprazine, 1-(2,3-dihydro-1,4-benzodioxanyl-5-yl) piperazine]
locomotor activity (distance traveled or zones crossed) (wild-type mice; 0.5 mg/kg i.p.): did not influence the locomotor activity | exploratory preference (center vs periphery of arena) (wild-type mice; 0.5 mg/kg i.p. (FIG. 6A, 6B)): no effect on exploratory preference | rearing behavior (wild-type mice; 0.5 mg/kg i.p. vs saline (FIG. 6C, 6D)): same pattern of rearing behavior | time after administration to decrease of DA and 5-HT release [1]: ≤ 20 min | time striatal release of DA and 5-HT remained below basal levels after administration [1]: at least 100 minutes | basal release of 5-HT ([1]; awake mice): decreased basal release | basal release of DA ([1]; awake mice): decreased basal release | overall safety and tolerance [2]: good
